Data taken from ChEMBL document CHEMBL4270599, “Synthesis of a 3'-C-ethynyl-β-d-ribofuranose purine nucleoside library: Discovery of C7-deazapurine analogs as potent antiproliferative nucleosides” (Eur J Med Chem, 2018).

Key:
[1] = test system: SNB-75; assay: Cytotoxicity against human SNB75 cells after 48 hrs by SRB assay; format: functional; settings: SNB-75, 48 h
[2] = test system: MDA-MB-468; assay: Growth inhibition of human MDA-MB-468 cells assessed as cell growth at 10^-7 M incubated for 48 hrs by sulforhodamine B assay relative to control; format: functional; settings: MDA-MB-468, 48 h, read-out: Activity
[3] = test system: OVCAR-4; assay: Growth inhibition of human OVCAR4 cells assessed as cell growth at 10^-8 M incubated for 48 hrs by sulforhodamine B assay relative to control; format: functional; settings: OVCAR-4, 48 h, read-out: Activity
[4] = test system: A498; assay: Growth inhibition of human A498 cells assessed as cell growth at 10^-8 M incubated for 48 hrs by sulforhodamine B assay relative to control; format: functional; settings: A498, 48 h, read-out: Activity
[5] = test system: NCI-H322M; assay: Growth inhibition of human NCI-H322M cells assessed as cell growth at 10^-8 M incubated for 48 hrs by sulforhodamine B assay relative to control; format: functional; settings: read-out: Activity
[6] = test system: HCT-116; assay: Growth inhibition of human HCT116 cells assessed as cell growth at 10^-4 M incubated for 48 hrs by sulforhodamine B assay relative to control; format: functional; settings: HCT-116, 48 h, read-out: Activity
[7] = test system: NCI-H522; assay: Growth inhibition of human NCI-H522 cells assessed as cell growth at 10^-7 M incubated for 48 hrs by sulforhodamine B assay relative to control; format: functional; settings: NCI-H522, 48 h, read-out: Activity
[8] = test system: SF-268; assay: Growth inhibition of human SF268 cells assessed as cell growth at 10^-7 M incubated for 48 hrs by sulforhodamine B assay relative to control; format: functional; settings: SF-268, 48 h, read-out: Activity
[9] = test system: IGROV-1; assay: Growth inhibition of human IGROV1 cells assessed as cell growth at 10^-4 M incubated for 48 hrs by sulforhodamine B assay relative to control; format: functional; settings: IGROV-1, 48 h, read-out: Activity
[10] = test system: NCI-H460; assay: Growth inhibition of human NCI-H460 cells assessed as cell growth at 10^-6 M incubated for 48 hrs by sulforhodamine B assay relative to control; format: functional; settings: NCI-H460, 48 h, read-out: Activity
[11] = test system: NCI/ADR-RES; assay: Cytotoxicity against human NCI-ADR-RES cells after 48 hrs by SRB assay; format: functional; settings: for CC50: read-out: pLC50 (the source's name) (converted)
[12] = test system: NCI-H522; assay: Cytotoxicity against human NCI-H522 cells after 48 hrs by SRB assay; format: functional; settings: NCI-H522, 48 h; for CC50: read-out: LC50 (the source's name)
[13] = test system: Malme-3M; assay: Cytotoxicity against human MALME-3M cells after 48 hrs by SRB assay; format: functional
[14] = test system: SK-MEL-2; assay: Cytotoxicity against human SK-MEL-2 cells after 48 hrs by SRB assay; format: functional; settings: SK-MEL-2, 48 h; for CC50: read-out: LC50 (the source's name)
[15] = test system: BT-549; assay: Growth inhibition of human BT549 cells assessed as cell growth at 10^-5 M incubated for 48 hrs by sulforhodamine B assay relative to control; format: functional; settings: BT-549, 48 h, read-out: Activity
[16] = test system: CCRF-CEM; assay: Growth inhibition of human CCRF-CEM cells assessed as cell growth at 10^-4 M incubated for 48 hrs by sulforhodamine B assay relative to control; format: functional; settings: read-out: Activity
[17] = test system: NCI-H23; assay: Growth inhibition of human NCI-H23 cells assessed as cell growth at 10^-5 M incubated for 48 hrs by sulforhodamine B assay relative to control; format: functional; settings: NCI-H23, 48 h, read-out: Activity
[18] = test system: MCF7; assay: Growth inhibition of human MCF7 cells assessed as cell growth at 10^-5 M incubated for 48 hrs by sulforhodamine B assay relative to control; format: functional; settings: MCF7, 48 h, read-out: Activity
[19] = test system: CCRF-CEM; assay: Growth inhibition of human CCRF-CEM cells assessed as cell growth at 10^-6 M incubated for 48 hrs by sulforhodamine B assay relative to control; format: functional; settings: read-out: Activity
[20] = test system: HCT-116; assay: Growth inhibition of human HCT116 cells assessed as cell growth at 10^-6 M incubated for 48 hrs by sulforhodamine B assay relative to control; format: functional; settings: HCT-116, 48 h, read-out: Activity
[21] = test system: BT-549; assay: Growth inhibition of human BT549 cells assessed as cell growth at 10^-7 M incubated for 48 hrs by sulforhodamine B assay relative to control; format: functional; settings: BT-549, 48 h, read-out: Activity
[22] = test system: CCRF-CEM; assay: Growth inhibition of human CCRF-CEM cells assessed as cell growth at 10^-5 M incubated for 48 hrs by sulforhodamine B assay relative to control; format: functional; settings: read-out: Activity
[23] = test system: Malme-3M; assay: Growth inhibition of human MALME-3M cells assessed as cell growth at 10^-6 M incubated for 48 hrs by sulforhodamine B assay relative to control; format: functional; settings: read-out: Activity
[24] = test system: SR; assay: Cytotoxicity against human SR cells after 48 hrs by SRB assay; format: functional
[25] = test system: SR; assay: Growth inhibition of human SR cells assessed as cell growth at 10^-8 M incubated for 48 hrs by sulforhodamine B assay relative to control; format: functional; settings: read-out: Activity
[26] = test system: OVCAR-8; assay: Growth inhibition of human OVCAR8 cells assessed as cell growth at 10^-8 M incubated for 48 hrs by sulforhodamine B assay relative to control; format: functional; settings: OVCAR-8, 48 h, read-out: Activity
[27] = test system: DU-145; assay: Growth inhibition of human DU145 cells assessed as cell growth at 10^-5 M incubated for 48 hrs by sulforhodamine B assay relative to control; format: functional; settings: DU-145, 48 h, read-out: Activity
[28] = test system: UO-31; assay: Growth inhibition of human UO31 cells assessed as cell growth at 10^-8 M incubated for 48 hrs by sulforhodamine B assay relative to control; format: functional; settings: UO-31, 48 h, read-out: Activity
[29] = test system: NCI-H226; assay: Growth inhibition of human NCI-H226 cells assessed as cell growth at 10^-5 M incubated for 48 hrs by sulforhodamine B assay relative to control; format: functional; settings: NCI-H226, 48 h, read-out: Activity
[30] = test system: A498; assay: Growth inhibition of human A498 cells assessed as cell growth at 10^-7 M incubated for 48 hrs by sulforhodamine B assay relative to control; format: functional; settings: A498, 48 h, read-out: Activity
[31] = test system: IGROV-1; assay: Growth inhibition of human IGROV1 cells assessed as cell growth at 10^-8 M incubated for 48 hrs by sulforhodamine B assay relative to control; format: functional; settings: IGROV-1, 48 h, read-out: Activity
[32] = test system: OVCAR-4; assay: Growth inhibition of human OVCAR4 cells assessed as cell growth at 10^-5 M incubated for 48 hrs by sulforhodamine B assay relative to control; format: functional; settings: OVCAR-4, 48 h, read-out: Activity
[33] = test system: PC-3; assay: Growth inhibition of human PC3 cells assessed as cell growth at 10^-7 M incubated for 48 hrs by sulforhodamine B assay relative to control; format: functional; settings: PC-3, 48 h, read-out: Activity
[34] = Antiproliferative activity against HELF cells after 4 days by Coulter counter method; format: cell-based; settings: Homo sapiens, 96 h
[35] = read-out: pLC50 (the source's name) (converted)
[36] = read-out: LC50 (the source's name)

C#C[C@@]1(O)[C@@H](CO)O[C@@H](n2ccc3c(N)ncnc32)[C@@H]1O
TGI ([1]; read-out: TGI): 3.84 µM | GI50 ([1]; read-out: pGI50 (converted)): 1.82 µM | TGI ([1]; read-out: pTGI (converted)): 3.8 µM | growth at 0.1 µM [2]: 97% | growth at 0.01 µM [3]: 93% | growth at 0.01 µM [4]: 85% | growth at 0.01 µM [5]: 99% | growth at 100 µM [6]: -54% | growth at 0.1 µM [7]: 78% | growth at 0.1 µM [8]: 95% | growth at 100 µM [9]: -28% | growth at 1 µM [10]: 30% | TGI ([11]; read-out: TGI): 7.28 µM | GI50 ([11]; read-out: pGI50 (converted)): 0.794 µM | CC50 [11]: > 100 µM | TGI ([11]; read-out: pTGI (converted)): 7.24 µM | CC50 [12]: > 100 µM | TGI ([12]; read-out: TGI): 3.82 µM | GI50 ([12]; read-out: pGI50 (converted)): 0.372 µM | TGI ([12]; read-out: pTGI (converted)): 3.8 µM | GI50 ([13]; read-out: GI50): 1.68 µM | TGI ([13]; read-out: TGI): 5.55 µM | GI50 ([13]; read-out: pGI50 (converted)): 1.66 µM | CC50 [13, 35]: 30.9 µM | TGI ([13]; read-out: pTGI (converted)): 5.5 µM | CC50 [14]: > 100 µM | TGI ([14]; read-out: TGI): 6.32 µM | GI50 ([14]; read-out: pGI50 (converted)): 1.38 µM | TGI ([14]; read-out: pTGI (converted)): 6.31 µM | growth at 10 µM [15]: -63% | growth at 100 µM [16]: 9% | growth at 10 µM [17]: -32% | growth at 10 µM [18]: -4% | growth at 1 µM [19]: 70% | growth at 1 µM [20]: 38% | growth at 0.1 µM [21]: 102% | growth at 10 µM [22]: 14% | growth at 1 µM [23]: 72% | TGI ([24]; read-out: TGI): > 100 µM | GI50 ([24]; read-out: pGI50 (converted)): 0.813 µM | CC50 [24, 35]: > 100 µM | TGI ([24]; read-out: pTGI): > 100 µM | growth at 0.01 µM [25]: 101% | growth at 0.01 µM [26]: 103% | growth at 10 µM [27]: -8% | growth at 0.01 µM [28]: 94% | growth at 10 µM [29]: -42% | growth at 0.1 µM [30]: 105% | growth at 0.01 µM [31]: 101% | growth at 10 µM [32]: -9% | growth at 0.1 µM [33]: 97%

C#C[C@@]1(O)[C@@H](CO)O[C@@H](n2cc(I)c3c(N)ncnc32)[C@@H]1O
GI50 ([1]; read-out: GI50): 0.373 to 0.559 µM | CC50 [1, 36]: 5.53 to 5.92 µM | TGI ([1]; read-out: TGI): 1.81 to 2.18 µM | growth at 0.1 µM [2]: 65 to 68% | growth at 0.01 µM [3]: 90 to 104% | growth at 0.01 µM [4]: 88 to 102% | growth at 0.01 µM [5]: 75 to 86% | growth at 100 µM [6]: 4% | growth at 0.1 µM [7]: 42 to 64% | growth at 0.1 µM [8]: 70 to 73% | growth at 100 µM [9]: 2 to 3% | growth at 1 µM [10]: 6 to 9% | GI50 ([11]; read-out: GI50): 0.0637 to 0.0839 µM | TGI ([11]; read-out: TGI): 4.19 to 14.9 µM | CC50 [11]: > 100 µM | GI50 ([12]; read-out: GI50): 0.0648 to 0.152 µM | CC50 [12]: > 100 µM | TGI ([12]; read-out: TGI): 0.516 to 0.698 µM | GI50 ([13]; read-out: GI50): 0.525 to 1.3 µM | CC50 [13, 36]: > 100 µM | TGI ([13]; read-out: TGI): 2.76 to 4.16 µM | GI50 ([14]; read-out: GI50): 0.177 to 0.321 µM | CC50 [14]: 7.77 to 100 µM | TGI ([14]; read-out: TGI): 1.59 to 1.95 µM | growth at 100 µM [16]: 2 to 8% | growth at 10 µM [17]: -16% | growth at 10 µM [18]: 1 to 5% | growth at 1 µM [19]: 17 to 23% | growth at 1 µM [20]: 5 to 6% | growth at 0.1 µM [21]: 61 to 76% | growth at 10 µM [22]: 5 to 6% | IC50 [34]: 0.032 µM | growth at 1 µM [23]: 39 to 61% | GI50 ([24]; read-out: GI50): 0.182 to 0.378 µM | CC50 [24, 36]: > 100 µM | TGI ([24]; read-out: TGI): 8.15 to 100 µM | growth at 0.01 µM [25]: 94 to 96% | growth at 0.01 µM [26]: 75 to 89% | growth at 10 µM [27]: 8 to 11% | growth at 0.01 µM [28]: 84 to 85% | growth at 10 µM [29]: 6 to 10% | growth at 0.1 µM [30]: 74 to 89% | growth at 0.01 µM [31]: 39 to 60% | growth at 10 µM [32]: 9 to 13% | growth at 0.1 µM [33]: 43 to 48%
